From ChEMBL document CHEMBL1857833, “Screening and optimization of specific chemical series against human African Trypanosomiasis (HAT)”
≈ marks a conversion by molar mass, not a printed value. Where “and” joins values, the source holds several entries; their conditions need not be identical. Equal values may be shown once.

Columns and labels:
[1] = DNDI: Cytotoxicity against L929 mouse fibroblasts, CYTO-SP, 24 hour; assay type: toxicity, cell-based; conditions: mouse, L929 mouse fibroblasts
Trypanosoma brucei = test: DNDI: Inhibition of Human African Trypanosomiasis, SBRI 427, in vitro; assay type: functional, organism-based
[2] = Trypanosoma brucei, SBRI 427, read-out: IC50

| Compound | IC50 (Trypanosoma brucei; [2]) [µg/mL] | IC50 (Trypanosoma brucei) | IC50 at 24 h [1] [µg/mL] |
| --- | --- | --- | --- |
| CC(C)N1CCN(/C(=N\O)c2cccnc2Oc2cccc(C(F)(F)F)c2)CC1 | 0.73 (≈ 1.79 µM) | – | > 50 |
| Cc1ccc(Oc2ncccc2/C(=N/O)NCc2cccs2)c2c1CCC2 | 1.09 (≈ 2.87 µM) | – | > 50 |
| CCc1ccc(N/C(=N/O)c2ccccc2-c2ccccc2)cc1 | 5 (≈ 15.8 µM) | – | 15.6 (≈ 49.4 µM) |
| O/N=C(/c1cccnc1Oc1ccc2ccccc2c1)N1CCC2CCCCC2C1 (centres undefined) | 0.13 (≈ 0.324 µM) | – | > 50 |
| CSc1ccccc1Oc1ncccc1C#N | > 5 | – | > 50 |
| CC1CCC(N/C(=N\O)c2cccnc2Oc2c(F)cccc2F)CC1 (centres undefined) | 0.99 (≈ 2.74 µM) | – | > 50 |
| N#Cc1cccnc1Oc1cccc2ccccc12 | > 5 | – | > 50 |
| CCOc1ccccc1-c1nc(CNC2C[C@@H]3C[C@H]([C@H]2C)C3(C)C)co1 (some centres undefined) | 1.05 (≈ 2.96 µM) | 2.05 µg/mL (≈ 5.78 µM) | 27.8 (≈ 78.4 µM) |
| CN1CCCC1CCNCc1coc(-c2ccc(Br)cc2)n1 (centres undefined) | – | 1.22 µg/mL and 0.45 µg/mL | 25.1 (≈ 68.9 µM) |
| COc1ccccc1Oc1ncccc1C#N | > 5 | – | > 50 |
| CO/N=C/c1ccccc1-c1ccccc1 | > 5 | – | > 50 |
| COc1cc(C)ccc1Oc1nc(C)ccc1/C(=N/O)NCc1cc(C)cc(C)c1 | 1.1 (≈ 2.71 µM) | – | > 50 |
| Cc1ccc2cccc(Oc3ccc(/C(=N/O)NC4CCCCC4)cn3)c2n1 | 1.08 (≈ 2.87 µM) | – | > 50 |
| Cc1cc(C)cc(Oc2ccc(/C(=N/O)NC3CCCC3)cn2)c1 | 0.59 (≈ 1.81 µM) | – | < 50 |
| N/C(=N/O)c1cccnc1Oc1ccccc1 | > 5 | – | > 50 |
| CSc1ccccc1Oc1ncccc1/C(N)=N\O | > 5 | – | > 5 |
| Clc1ccc(-c2nc(CNCCCN3CCCC3)co2)c(Cl)c1 | – | 0.62 µg/mL and 1.33 µg/mL | 33.6 (≈ 94.8 µM) |
| O/N=C(\NC1CCCCC1)c1cccc(F)c1 | > 5 | – | > 50 |
| Cc1cc(C)cc(Oc2ccc(/C(=N/O)NC3CCCCC3)cn2)c1 | 1.08 (≈ 3.18 µM) | – | > 50 |
| CC1CCCC(NCc2coc(-c3ccccc3Br)n2)C1C (centres undefined) | – | 2.06 µg/mL and 0.92 µg/mL | > 50 |
| CC1CC(NCc2coc(-c3ccc(C(F)(F)F)cc3)n2)CC(C)(C)C1 (centres undefined) | 1.07 (≈ 2.92 µM) | 0.54 µg/mL (≈ 1.47 µM) | > 50 |
| CC1CCC(C)N1/C(=N\O)c1ccc(Oc2ccc3ccccc3c2)nc1 (centres undefined) | 0.91 (≈ 2.52 µM) | – | > 50 |
| COc1ccccc1/C(=N/O)N(C(=O)C(C)C)C(=O)C(C)C | > 5 | – | > 50 |
| Cc1ccc(Oc2ncccc2/C(=N/O)NCC(C)C)c2c1CCC2 | 0.55 (≈ 1.62 µM) | – | > 50 |
| CCN(CC)/C(=N\O)c1ccccc1-c1ccccc1 | > 5 | – | > 50 |
| CSc1ccccc1Oc1ncccc1/C(=N/O)NCC1CC1 | – | 0.53 µg/mL and < 0.19 µg/mL | > 50 |
| CC(C)Oc1ccccc1Oc1ncccc1/C(=N/O)NC1CCCCC1 | 0.46 (≈ 1.25 µM) | – | > 50 |
| Cc1ccc(-c2nc(CNC[C@@H]3CC[C@H]4C[C@@H]3C4(C)C)co2)cc1 | – | 0.93 µg/mL and 2.49 µg/mL | 28.4 (≈ 87.5 µM) |

| Compound | IC50 (Trypanosoma brucei; [2]) [µg/mL] | IC50 (Trypanosoma brucei) | IC50 at 24 h [1] [µg/mL] |
| --- | --- | --- | --- |
| CCOc1ccccc1CN/C(=N\O)c1cccnc1Oc1ccc(C(C)C)cc1 | 1.12 (≈ 2.76 µM) | – | 38.6 (≈ 95.1 µM) |
| Cc1ccccc1CN/C(=N\O)c1cccnc1Oc1ccc(C(C)C)cc1 | 1.06 (≈ 2.82 µM) | – | 44.9 (≈ 120 µM) |
| CC1CC(N/C(=N\O)c2cccnc2Oc2ccc(C(C)C)cc2)CC(C)(C)C1 (centres undefined) | 0.54 (≈ 1.37 µM) | – | 21.9 (≈ 55.4 µM) |
| COc1cc(C)ccc1Oc1nc(C)ccc1/C(=N/O)NCc1cc(F)cc(F)c1 | 1.02 (≈ 2.47 µM) | – | > 50 |
| O/N=C(\NC1CCCCC1)c1cccnc1Oc1ccc2ccccc2c1 | 0.08 (≈ 0.221 µM) | – | > 50 |
| O/N=C(/c1ccccc1-c1ccccc1)n1ccnc1 | > 5 | – | > 50 |
| CC1CC(N/C(=N\O)c2cccnc2Oc2ccc(F)c(Cl)c2)CC(C)(C)C1 (centres undefined) | 0.07 (≈ 0.172 µM) | – | 28.2 (≈ 69.4 µM) |
| O/N=C(\NC1CCCCC1)c1ccnc(Oc2cccc3c2CCCC3)c1 | 0.83 (≈ 2.27 µM) | – | 48.4 (≈ 132 µM) |
| Cc1cc(C)cc(CN/C(=N\O)c2cccnc2Oc2c(F)cccc2F)c1 | 1.08 (≈ 2.82 µM) | – | > 50 |
| Cc1cc(C)cc(Oc2ccc(/C(=N/O)NC3CCC3)cn2)c1 | 0.59 (≈ 1.89 µM) | – | > 50 |
| CC(C)COc1ncccc1/C(=N/O)NCC(C)(C)C | 1.12 (≈ 4.01 µM) | – | > 50 |
| O/N=C(\NC1CCCCC1)c1cccc(Br)c1 | 3.28 (≈ 11 µM) | – | 39 (≈ 131 µM) |
| C=CCO/N=C/c1ccccc1-c1ccccc1 | > 5 | – | > 50 |
| CCOc1ccccc1CN/C(=N\O)c1cccnc1Oc1ccc(C)c2c1CCC2 | 0.73 (≈ 1.75 µM) | – | > 50 |
| CC1CCC(N/C(=N\O)c2cccnc2Oc2ccccc2OC(C)C)CC1 (centres undefined) | 0.55 (≈ 1.43 µM) | – | > 50 |
| C[C@H]1C(NCc2coc(-c3ccccc3Br)n2)C[C@@H]2C[C@H]1C2(C)C (some centres undefined) | 1.22 (≈ 3.13 µM) | 0.94 µg/mL (≈ 2.41 µM) | 43.2 (≈ 111 µM) |
| CC(C)(C)CN/C(=N\O)c1cccnc1Oc1c(F)cccc1F | 0.39 (≈ 1.16 µM) | – | 45.4 (≈ 135 µM) |
| CC1CC(N/C(=N\O)c2cccnc2Oc2ccccc2OC(C)C)CC(C)(C)C1 (centres undefined) | 1.06 (≈ 2.58 µM) | – | > 50 |
| CCc1ccccc1Oc1ncccc1/C(N)=N\O | > 5 | – | > 5 |
| COc1ccccc1Oc1ncccc1C(=O)NC1CCCCC1 | > 5 | – | > 50 |
| OC/C(=N\O)c1ccccc1 | > 5 | – | > 50 |
| CN(/C(=N\O)c1cccnc1OCc1ccccc1F)c1ccccc1 | 1.06 (≈ 3.02 µM) | – | > 50 |
| O/N=C(\NC1CCCC1)c1cccnc1Oc1c(F)cccc1F | 0.23 (≈ 0.69 µM) | – | > 50 |
| O/N=C(\NCc1ccccc1)c1cccnc1Oc1cc(Cl)ccc1Cl | 0.77 (≈ 1.98 µM) | – | > 50 |
| Cc1ccc(Oc2ncccc2/C(=N/O)NC2CCC(C)CC2)c2c1CCC2 (centres undefined) | 0.81 (≈ 2.13 µM) | – | 32.5 (≈ 85.5 µM) |
| N#Cc1cccnc1Oc1ccccc1F | > 5 | – | > 50 |
| O/N=C(\NC1CCCCC1)c1cccc(-c2ccccc2)c1 | 2.6 (≈ 8.83 µM) | – | 35 (≈ 119 µM) |

Now from value to compound, other results behind:

| IC50 (Trypanosoma brucei; [2]) [µg/mL] | IC50 (Trypanosoma brucei) | Compound | IC50 at 24 h [1] [µg/mL] |
| --- | --- | --- | --- |
| 0.09 (≈ 0.252 µM) | – | COc1cc(C)ccc1Oc1nc(C)ccc1/C(=N/O)NCC(C)(C)C | < 50 |
| > 5 | – | N/C(=N/O)c1cccnc1Oc1ccc2ccccc2c1 | > 50 |
| > 5 | – | COc1ccccc1Oc1ncccc1C(=N)NC1CCCCC1 | > 50 |
| 1.1 (≈ 2.87 µM) | – | COc1cccc(CN/C(=N\O)c2cccnc2Oc2ccc(Cl)cc2)c1 | > 50 |
| > 5 | – | O/N=C(\NC1CCCCC1)c1ccc(Br)cc1 | 38 (≈ 128 µM) |
| 0.34 (≈ 1.09 µM) | – | COc1ccc(Oc2ncccc2/C(=N/O)NCC2CC2)cc1 | > 50 |
| 0.54 (≈ 1.52 µM) | – | CC(C)c1ccc(Oc2ncccc2/C(=N/O)NCC2CCCO2)cc1 (centres undefined) | > 50 |
| > 5 | – | COc1ccc(-c2noc(C(C)C)n2)cc1 | > 50 |
| > 5 | – | CCCNC/C(=N\O)c1ccc(OC)cc1 | > 50 |
| > 5 | – | COc1cccc(/C(N)=N/O)c1 | > 50 |
| > 5 | – | COc1ccc(/C=N/Oc2ccccc2)cc1 | > 50 |
| > 5 | – | COc1ccccc1-c1noc(C(C)C)n1 | > 50 |
| 0.58 (≈ 1.74 µM) | – | CC(C)(C)CN/C(=N\O)c1cccnc1Oc1ccc(Cl)cc1 | > 50 |
| > 5 | – | COc1ccccc1/C(N)=N/O | > 50 |
| > 5 | – | COc1ccc(/C(CO)=N/O)cc1 | > 50 |
| > 5 | – | CCO/N=C/c1ccc(OC)cc1 | > 50 |
| 1.07 (≈ 2.96 µM) | – | CCc1ccc(Oc2ncccc2/C(=N/O)NCc2ccccc2C)cc1 | > 50 |
| > 5 | – | COc1ccc(C(=N)NO)cc1 | > 50 |
| > 5 | – | N/C(=N/O)c1cccnc1Oc1ccccc1Br | > 50 |

| IC50 (Trypanosoma brucei; [2]) [µg/mL] | IC50 (Trypanosoma brucei) | Compound | IC50 at 24 h [1] [µg/mL] |
| --- | --- | --- | --- |
| 0.92 (≈ 2.56 µM) | – | O/N=C(\NCC1CCCCC1)c1cccnc1Oc1ccc(Cl)cc1 | > 50 |
| 1.2 (≈ 3.47 µM) | – | O/N=C(\NC1CCCCC1)c1ccc(Oc2ccc(Cl)cc2)nc1 | 30.8 (≈ 89.1 µM) |
| 1.08 (≈ 2.86 µM) | – | CCc1ccc(Oc2ncccc2/C(=N/O)NCc2ccccc2OC)cc1 | > 50 |
| > 5 | – | COc1ccccc1Oc1ncccc1C(=N)N | > 50 |
| 1.18 (≈ 3.49 µM) | – | Cc1cc(N)nn1Cc1coc(-c2ccc(OC(F)(F)F)cc2)n1 | > 50 |
| > 5 | – | COc1ccc(/C(Cc2ccccc2)=N/O)cc1 | > 50 |
| 0.92 (≈ 2.68 µM) | – | COCC(C)N/C(=N\O)c1cccnc1Oc1ccc(C(C)C)cc1 (centres undefined) | > 50 |
| 1.08 (≈ 3 µM) | – | CCC(CC)N/C(=N\O)c1ccc(C)nc1Oc1ccc(SC)cc1 | > 50 |
| 1.12 (≈ 3.55 µM) | – | CCc1ccc(Oc2ncccc2/C(=N/O)NCCOC)cc1 | > 50 |
| > 5 | – | COc1ccc(C(=O)NC2CCCCC2)c(OC)c1 | > 50 |
| > 5 | – | COc1cccc(/C(=N/O)N(C(=O)C(C)C)C(=O)C(C)C)c1 | > 50 |
| > 5 | – | CO/N=C/c1ccc(OC)cc1 | > 50 |
| > 5 | – | COc1cccc(-c2noc(C(C)C)n2)c1 | > 50 |
| 0.82 (≈ 2.32 µM) | – | COCC(C)N/C(=N\O)c1ccnc(Oc2ccc(F)c(Cl)c2)c1 (centres undefined) | > 50 |
| 0.9 (≈ 2.44 µM) | – | CC(C)(C)CN/C(=N\O)c1ccc(Oc2cc(Cl)ccc2Cl)nc1 | > 50 |
| > 5 | – | COc1ccc(C(=O)N(C)OC)cc1 | > 50 |
| 0.62 (≈ 1.86 µM) | – | O/N=C(\NCC1CC1)c1cccnc1Oc1ccc2ccccc2c1 | > 50 |
| > 5 | – | C=CCO/N=C/c1ccc(OC)cc1 | > 50 |
| > 5 | – | COc1ccc(/C(=N/O)N(C(=O)C(C)C)C(=O)C(C)C)cc1 | > 50 |
